# Values of other authors as cited in patent US20050119124A1, “Phosphorus and potassium fertilizer for all forms of perennial trees, vines and annual crops” (priority 1999, published 2005).
# Settings: 18C
compound,measurement,value
"OP(O)O [Phosphorous acid, phosphorous acid]","pK, first acid group",2.00
same,"pK, second acid group",6.59
